# From paper PMC9428149, “Tackling recalcitrant Pseudomonas aeruginosa infections in critical illness via anti-virulence monotherapy” (Nature Communications, 2022)
# Legend:
# [1] = test system: pyocyanin production in PA14; assay: Pyocyanin production assay; details: PA14; 50µM of each inhibitor (method says 10 μM); vs vehicle
# [2] = test system: MvfR-regulated small molecules in PA14; assay: Production of HAQs, 2-AA, DHQ and AA in PA14 cultures (LC-MS); details: PA14, 50µM inhibitor; for % Production AA: anthranilic acid, precursor control
# [3] = test system: pqsA promoter (PA14 PpqsA-GFPASV); assay: pqsA-GFP reporter expression; assay type: cell-based, Pseudomonas aeruginosa; details: PA14 PpqsA-GFPASV; 50µM per b210 (method b76 says 10 µM)
# Experimental: The expression levels of pqsA, which is representative of the pqsABCDE operon transcription, were monitored in the presence of the MvfR inhibitors using PA14 cells containing the PpqsA-GFPASV, a reporter construct of the pqsA promoter fused to a short half-life GFP gene in, such that quantitative quenching of fluorescence corresponds to pqsA promoter repression[22],[32],[48]. […] GFP fluorescence levels were measured at λex = 485 nm/λem = 535 nm after 10 seconds of shaking every 15 min up to 12 h. The IC50 of PpqsA-GFP expression levels was performed as above using the same 13 different concentrations (0.0122–50 μM) for each of the 13 compounds tested.
Structure (SMILES),% Production Pyocyanin [1],% Production 2-AA [2],% Production DHQ [2],% Production HHQ [2],% Production HQNO [2],% Production PQS [2],% Production AA [2],% Production pqsA-GFP [3]
O=C(CC(=O)Nc1ccc(Oc2ccccc2)cc1)Nc1ccc(F)cc1 [D68],33%,84%,109%,121%,121%,137%,127%,52%
Cc1cc(F)ccc1NCC(=O)Nc1ccc(C(F)(F)F)cc1 [G2],61%,68%,81%,110%,86%,93%,–,46%
Cc1cc(F)ccc1N1CCCC(NC(=O)c2ccc(C#N)cc2)C1 (centres unmarked) [D38],108%,101%,84%,98%,100%,96%,54%,90%
Cc1ccccc1NCC(=O)Nc1ccc(C#N)cc1 [G9],94%,64%,59%,76%,92%,124%,–,93%
Cc1cc(F)ccc1CCNC(=O)c1ccc(C#N)cc1 [D39],110%,106%,96%,96%,102%,93%,68%,91%
N#Cc1ccc(NC(=O)CC(=O)Nc2ccc(N)cc2)cc1 [D52],87%,101%,103%,92%,92%,86%,115%,90%
Cc1cc(F)ccc1NC(=O)CC(=O)Nc1ccc(C#N)cc1 [D48],60%,77%,91%,96%,94%,90%,59%,44%
O=C(CC(=O)Nc1ccc([N+](=O)[O-])cc1O)Nc1ccc(Oc2ccccc2)cc1 [D61],6%,12%,8%,1%,8%,6%,112%,7%
Cc1cc(F)ccc1OCC(=O)Nc1ccc(C#N)cc1 [G5],98%,63%,83%,114%,111%,114%,54%,98%
Cc1cc(F)ccc1NCC(=O)Nc1cccc(C#N)c1 [G1],103%,122%,–,100%,101%,109%,–,84%
O=C(CC(=O)Nc1ccc(Oc2ccccc2)cc1)Nc1ccc(Cl)cc1 [D67],26%,84%,105%,101%,105%,106%,155%,41%
N#Cc1ccc(NC(=O)CC(=O)Nc2ccc(F)cc2)cc1 [D36],16%,37%,68%,57%,59%,47%,187%,10%
N#Cc1ccc(NC(=O)C(=O)Nc2ccc(F)cc2)cc1 [D37],106%,103%,105%,98%,99%,110%,90%,97%
N#Cc1ccc(NC(=O)CC(=O)Nc2ccc(Oc3ccccc3)cc2)c(N)c1 [D62],7%,10%,16%,2%,13%,9%,107%,6%
N#Cc1ccc(NC(=O)CNc2ccc(F)cc2)cc1 [G8],86%,112%,–,87%,108%,124%,–,63%
O=C(CC(=O)Nc1ccc(Oc2ccccc2)cc1)Nc1ccc(I)cc1 [D59],72%,92%,93%,99%,97%,93%,131%,81%
Cc1cc(F)ccc1NC(=O)Cc1ccc(C#N)cc1 [D40],115%,113%,85%,102%,109%,100%,81%,96%
CC(=O)c1ccc(NC(=O)CC(=O)Nc2ccc(C#N)cc2)cc1 [D49],66%,90%,106%,120%,101%,119%,131%,28%
Cc1cc(F)ccc1NCC(=O)Nc1ccc(F)cc1 [G4],84%,80%,85%,95%,92%,88%,–,92%
N#Cc1ccc(NC(=O)CC(=O)Nc2ccc(C(=O)C(F)(F)F)cc2)cc1 [D50],84%,140%,89%,107%,103%,104%,176%,102%
Cc1cc(F)ccc1NC(C)C(=O)Nc1ccc(C#N)cc1 (centres unmarked) [G6],110%,152%,–,106%,131%,115%,–,87%
O=C(CC(=O)Nc1ccc(Oc2ccccc2)cc1)Nc1ccc(Br)cc1 [D64],48%,78%,85%,88%,88%,100%,50%,61%
